Experimental data from patent US8367887B2, “Normal-tension glaucoma model and method for evaluation of test substances by using same” (Shinshu University, priority 2007, dated 2013).
Where a name gives a salt, the structure may show the parent alone.

Legend:
[1] = system: retinal ganglion cells; experiment: Screening of test substances: protection of retinal ganglion cells from NMDA-induced apoptosis in wild-type and NF-κBp50-deficient mice; assay type: in vivo, mouse; details: 5 mM NMDA into vitreous; for effect of protecting retinal ganglion cells from NMDA-induced apoptosis (conclusion in words): wild-type and NF-κBp50-deficient mice, 24 hours
Protocol: (§1) Intravitreal NMDA injection was performed. 2 μl of 5 mM solution of NMDA in buffered saline solution (BSS) was injected into the vitreous of the left eye of each mouse aged 2 months. The right eyes were injected with BSS alone. At 24 hours and 4 days after injection, the eyes were enucleated and fixed in 4% paraformaldehyde in PB, followed by dehydration and paraffin embedding. Tranverse sections were made through the optic disc and stained with hematoxylin and eosin (H&E). Cells of 0.35 mm length at 0.3 mm from the edge of the optic disc in the ganglion cell layer were counted except for cells infiltrating the ganglion cell layer. The average number of cells per field was analyzed, and statistical differences were analyzed by the Student's t test.
By intraperitoneal administration, phosphate buffered saline (PBS) as control substance was respectively administered to wild-type mice and NF-κBp50-deficient mice once daily for 7 days. 5 mM of NMDA was directly administered into vitreous of the mice, and then the number of retinal ganglion cells after 24 hours was counted.
By intraperitoneal administration, 10 mg/kg of memantine hydrochloride, which is used as a curative medicine for Alzheimer type dementia and is an antagonist of NMDA receptor as one of glutamic acid receptor, was respectively administered to wild-type mice and […] mice once daily for 7 days. 5 mM of NMDA was directly administered into vitreous of the mice, and then the number of retinal ganglion cells after 24 hours were counted.
100 mg/kg of lomerizine hydrochloride, which is used as a curative medicine for migraine and is a piperazine-type calcium inhibitor, was respectively administered orally via catheters to wild-type mice and NF-κBp50-deficient mice once daily for 7 days. 5 mM of NMDA was directly administered into vitreous thereof, and then the number of retinal ganglion cells after 24 hours was numerated.
By intraperitoneal administration, 10 mg/kg of MK-801, which is NMDA receptor antagonist and is (5S,10R)-[…]-5-methyl-10,11-dihydro-5H-dibenzo[a,d]-cyclo-hepten-5,10-imine hydrogen maleate, was respectively administered to wild-type mice and NF-κBp50-deficient mice once daily for 7 days. 5 mM of NMDA was directly administered into vitreous thereof, and then the number of retinal ganglion cells after 24 hours was counted.
A control group was kept alike with administration for 2 weeks instead of administration of PBS for 7 days under above-mentioned control group. On the other hand, 3 mg/kg of […] was respectively administered to wild-type mice and NF-κBp50-deficient mice once daily for 2 weeks by intraperitoneal administration. 5 mM of NMDA was directly administered into vitreous thereof, and then the number of retinal ganglion cells after 24 hours was counted.

[2] = system: retinal ganglion cells; experiment: Susceptibility of NMDA-induced neurotoxicity (intravitreal NMDA, count of live ganglion cells) in wild-type and NF-κBp50-deficient mice; assay type: in vivo, mouse; details: for cell death in GCL (ganglion cell layer): 2 months old, 10 nmol NMDA intravitreal, 24 hours, FIG. 5
Protocol: as §1
Since NMDA receptor-mediated excitotoxicity has been reported to contribute to glaucomatous neuropathy and the NMDA receptor-mediated […] leads apoptosis of the neurons, the effect of NF-κBp50 on NMDA-induced neurotoxicity was examined. NMDA has excitotoxicity at a high concentration of 100 nmol which promptly leads cell death. The results of histological examination of the retinas at 24 hours after intravitreal injection of 10 nmol NMDA, which is a relatively low concentration as for NMDA-induced neurotoxicity, are shown in FIG. 5.
The live cells were counted in length of 0.35 mm at 0.3 mm each from the edge of the optic disc. Bar graphs show the number of cells in GCL at time before and 24 hours after NMDA-treatment. The average number of cells per field was analyzed by the two-tailed t-test. Statistical differences were analyzed by the Student's t test. Data are mean±SEM (n=6 to 7 mice). *1p<0.01 versus wild-type mice. *2p<0.01 versus wild-type mice.
[…] of NMDA were directly administered into vitreous respectively, and then the number of live ganglion cells was counted. As a control, the number of live ganglion cells without administration of NMDA was also counted. […] On the other hand, in the case of wild-type mice and NF-κBp50-deficient mice with injection of […] NMDA, which is a relatively low concentration, while almost all of the ganglion cells in wild-type mice survived at 4 days after NMDA treatment, about 60% of the ganglion cells in NF-κBp50-deficient mice were dead within 24 hours by apoptosis and moreover almost all of them were dead within 96 hours.

[3] = wild-type mice and NF-κBp50-deficient mice, injection of 50 mM NMDA into vitreous, FIG. 6

## C=CC[C@@H]1/C=C(\C)C[C@H](C)C[C@H](OC)[C@H]2O[C@@](O)(C(=O)C(=O)N3CCCC[C@H]3C(=O)O[C@H](/C(C)=C/[C@@H]3CC[C@@H](O)[C@H](OC)C3)[C@H](C)[C@@H](O)CC1=O)[C@H](C)C[C@@H]2OC [KF506]
[1]; NF-κBp50-deficient mice, 3 mg/kg intraperitoneal once daily for 2 weeks, FIG. 7f
  retinal ganglion cells dead by apoptosis within 24 hours after administration of NMDA: no more than 34%
[1]; wild-type mice, 3 mg/kg intraperitoneal once daily for 2 weeks, FIG. 7f
  retinal ganglion cells dead by apoptosis within 24 hours after administration of NMDA: about 5%

## C[C@]12N[C@H](Cc3ccccc31)c1ccccc12 [MK-801, (5S,10R)-(−)-5-methyl-10,11-dihydro-5H-dibenzo[a,d]-cyclo-hepten-5,10-imine hydrogen maleate]
[1]; NF-κBp50-deficient mice, 10 mg/kg intraperitoneal once daily for 7 days, FIG. 7d
  retinal ganglion cells dead by apoptosis within 24 hours after administration of NMDA: no more than 9%
[1]
  effect of protecting retinal ganglion cells from NMDA-induced apoptosis (conclusion in words): had pharmacological effects of protecting retinal ganglion cells from NMDA-induced apoptosis
[1]; wild-type mice, 10 mg/kg intraperitoneal once daily for 7 days, FIG. 7d
  retinal ganglion cells dead by apoptosis within 24 hours after administration of NMDA: about 2%

## CN[C@H](CC(=O)O)C(=O)O [NMDA, N-methyl D aspartate]
[2]; NF-κBp50-deficient mice
  cell death in GCL (ganglion cell layer): markedly induced cell death in GCL
[2]; NF-κBp50-deficient mice, injection of 5 nM NMDA into vitreous, FIG. 6
  ganglion cells dead within 96 hours: almost all
[2]; NF-κBp50-deficient mice, injection of 5 mM NMDA into vitreous, FIG. 6
  ganglion cells dead within 24 hours by apoptosis: about 60%
[2]; [3]
  ganglion cells dead by apoptosis within 24 hours after NMDA treatment: about half
  ganglion cells dead by apoptosis within 96 hours (4 days): almost all
[2]; wild-type mice
  cell death in GCL (ganglion cell layer): no significance was observed
[2]; wild-type mice, injection of 5 mM NMDA into vitreous, FIG. 6
  ganglion cells survived at 4 days after NMDA treatment: almost all

## COc1ccc(CN2CCN(C(c3ccc(F)cc3)c3ccc(F)cc3)CC2)c(OC)c1OC [lomerizine hydrochloride]
[1]; NF-κBp50-deficient mice, 100 mg/kg orally via catheters once daily for 7 days, FIG. 7c
  retinal ganglion cells dead by apoptosis within 24 hours after administration of NMDA: no more than 28%
[1]; wild-type mice, 100 mg/kg orally via catheters once daily for 7 days, FIG. 7c
  retinal ganglion cells dead by apoptosis within 24 hours after administration of NMDA: about 2%

## CC12CC3CC(C)(C1)CC(N)(C3)C2 [memantine hydrochloride]
[1]; NF-κBp50-deficient mice, 10 mg/kg intraperitoneal once daily for 7 days, FIG. 7b
  retinal ganglion cells dead by apoptosis within 24 hours after administration of NMDA: about 15%
[1]
  effect of protecting retinal ganglion cells from NMDA-induced apoptosis (conclusion in words): had pharmacological effects of protecting retinal ganglion cells from NMDA-induced apoptosis
[1]; wild-type mice, 10 mg/kg intraperitoneal once daily for 7 days, FIG. 7b
  retinal ganglion cells dead by apoptosis within 24 hours after administration of NMDA: about 3%
